A melting point of 213 to 215 °C was found for `C[C@H](NC(=O)c1c(CN2CCN(C(=O)CC(C)(C)CC(=O)O)CC2)c(-c2ccccc2)nc2ccccc12)c1ccccc1` [Example 6, 3,3-Dimethyl-5-oxo-5-{4-[2-phenyl-4-((S)-1-phenyl-ethylcarbamoyl)-quinolin-3-ylmethyl]-piperazin-1-yl}-pentanoic acid] in this work. A melting point of 125 °C was found for `CCNCCC(=O)N1CCN(Cc2c(-c3ccccc3)nc3ccccc3c2C(=O)N[C@@H](C)C2CCCCC2)CC1` [Example 22, 3-[4-(3-Ethylamino-propanoyl)-piperazin-1-ylmethyl]-2-phenyl-quinoline-4-carboxylic acid ((S)-1-cyclohexyl-ethyl)-amide] in this work. A melting point of 125 to 129 °C was found for `CCOC(=O)C(C(=O)N1CCN(Cc2c(-c3ccccc3)nc3ccccc3c2C(=O)N[C@@H](C)C2CCCCC2)CC1)c1ccccc1` (stereo partly drawn) [Example 16, 3-{4-[4-((S)-1-Cyclohexyl-ethylcarbamoyl)-2-phenyl-quinolin-3-ylmethyl]-piperazin-1-yl}-3-oxo-2-phenyl-propionic acid ethyl ester] in this work. With `C[C@H](NC(=O)c1c(CN2CCN(C(=O)c3cncc(C(=O)O)c3)CC2)c(-c2ccccc2)nc2ccccc12)C1CCCCC1` [Example 14, 5-(1-{4-[4-((S)-1-Cyclohexyl-ethylcarbamoyl)-2-phenyl-quinolin-3-ylmethyl]-piperazin-1-yl}-methanoyl)-nicotinic acid] the melting point was 250 to 255 °C (dec.). A melting point of 120 to 122 °C was found for `C[C@H](NC(=O)c1c(CN2CCN(C(=O)CCN3CCCCC3)CC2)c(-c2ccccc2)nc2ccccc12)C1CCCCC1` [Example 24, 2-Phenyl-3-[4-(3-piperidin-1-yl-propanoyl)-piperazin-1-ylmethyl]-quinoline-4-carboxylic acid ((S)-1-cyclohexyl-ethyl)-amide] in this work. A melting point of 164 to 166 °C was found for `C[C@H](NC(=O)c1c(CN2CCN(C(=O)CCN)CC2)c(-c2ccccc2)nc2ccccc12)C1CCCCC1` [Example 21, 3-[4-(3-Amino-propanoyl)-piperazin-1-ylmethyl]-2-phenyl-quinoline-4-carboxylic acid ((S)-1-cyclohexyl-ethyl)-amide] in this work. A melting point of 125 to 130 °C was found for `C[C@H](NC(=O)c1c(CN2CCN(C(=O)CCCC(=O)O)CC2)c(-c2ccccc2)nc2ccccc12)C1CCCCC1` [Example 11, 5-{4-[4-((S)-1-Cyclohexyl-ethylcarbamoyl)-2-phenyl-quinolin-3-ylmethyl]-piperazin-1-yl}-5-oxo-pentanoic acid] in this work. A melting point of 185 to 188 °C was found for `C[C@H](NC(=O)c1c(CN2CCN(C(=O)c3ccc(C(=O)O)cc3)CC2)c(-c2ccccc2)nc2ccccc12)C1CCCCC1` [Example 15, 4-(1-{4-[4-((S)-1-Cyclohexyl-ethylcarbamoyl)-2-phenyl-quinolin-3-ylmethyl]-piperazin-1-yl}-methanoyl)-benzoic acid] in this work. A melting point of 130 to 140 °C was found for `C[C@H](NC(=O)c1c(CN2CCN(C(=O)[C@H]3CCCC[C@H]3C(=O)O)CC2)c(-c2ccccc2)nc2ccccc12)c1ccccc1` (mixture of isomers) [Example 8, Cis 2-(1-{4-[2-Phenyl-4-((S)-1-phenyl-ethylcarbamoyl)-quinolin-3-ylmethyl]-piperazin-1-yl}-methanoyl)-cyclohexanecarboxylic acid] in this work. A melting point of 179 to 180 °C was found for `C[C@H](NC(=O)c1c(CN2CCN(C(=O)c3cccc(C(=O)O)c3)CC2)c(-c2ccccc2)nc2ccccc12)C1CCCCC1` [Example 13, 3-(1-{4-[4-((S)-1-Cyclohexyl-ethylcarbamoyl)-2-phenyl-quinolin-3-ylmethyl]-piperazin-1-yl}-methanoyl)-benzoic acid] in this work. A melting point of 214 to 215 °C was found for `C[C@H](NC(=O)c1c(CN2CCN(C(=O)/C=C/C(=O)O)CC2)c(-c2ccccc2)nc2ccccc12)c1ccccc1` [Example 9, (E)-4-Oxo-4-{4-[2-phenyl-4-((S)-1-phenyl-ethylcarbamoyl)-quinolin-3-ylmethyl]-piperazin-1-yl}-but-2-enoic acid] in this work. A melting point of 135 to 145 °C was found for `C[C@H](NC(=O)c1c(CN2CCN(C(=O)[C@@H]3C[C@H]3C(=O)O)CC2)c(-c2ccccc2)nc2ccccc12)c1ccccc1` (mixture of isomers) [Example 7, Trans 2-(1-{4-[2-Phenyl-4-((S)-1-phenyl-ethylcarbamoyl)-quinolin-3-ylmethyl]-piperazin-1-yl}-methanoyl)-cyclopropanecarboxylic acid] in this work. A melting point of 162 to 165 °C was found for `C[C@H](NC(=O)c1c(CN2CCN(C(=O)c3nccnc3C(=O)O)CC2)c(-c2ccccc2)nc2ccccc12)C1CCCCC1` [Example 12, 3-(1-{4-[4-((S)-1-Cyclohexyl-ethylcarbamoyl)-2-phenyl-quinolin-3-ylmethyl]-piperazin-1-yl}-methanoyl)-pyrazine-2-carboxylic acid] in this work. A melting point of 116 to 119 °C was found for `C[C@H](NC(=O)c1c(CN2CCN(C=O)CC2)c(-c2ccccc2)nc2ccccc12)C1CCCCC1` [Example 18, 3-(4-Formyl-piperazin-1-ylmethyl)-2-phenyl-quinoline-4-carboxylic acid ((S)-1-cyclohexyl-ethyl)-amide] in this work. A melting point of 150 to 155 °C was found for `C[C@H](NC(=O)c1c(CN2CCN(C(=O)CC(=O)O)CC2)c(-c2ccccc2)nc2ccccc12)C1CCCCC1` [Example 10, 3-{4-[4-((S)-1-Cyclohexyl-ethylcarbamoyl)-2-phenyl-quinolin-3-ylmethyl]-piperazin-1-yl}-3-oxo-propionic acid] in this work.

Source: US20040082589A1, “Quinoline derivatives as nk-3 and nk-2 antagonists” (priority 2000, published 2004)
